# Data from patent US6753021B2, “Biologically active chloroform fraction of an extract obtained from a mangrove plant Salvadora persica L” (Council of Scientific & Industrial Research, priority 2001, dated 2004).
# Test system: isolated guinea pig ileum
# Assay: Anti-cholinergic activity: acetylcholine-induced contraction of isolated guinea pig ileum
# Settings: in words; isolated compounds were tested only on isolated guinea pig ileum
# Experimental: Female, virgin guinea pigs weighing around 300 to 350 g, housed under uniform husbandry conditions (temperature 25±1° C.) were used. The animals were starved 24 hours prior to the experiment, only water was provided ad libitum.
# The isolated guinea pig ileum was used to study the anti-spasmodic, anti-cholinergic, and anti-arrhythmic activity of the active fractions.
# In particular, the five compounds isolated were tested only on isolated guinea pig ileum. The longitudinal ileal muscle from a freshly killed guinea pig was suspended in an organ bath of 10 ml capacity, filled with Tyrode solution, and aerated with air.
# All of these compounds were dissolved in 1000 ml of distilled water.
# Two to four doses of acetylcholine were added to the bath to obtain uniform amplitude with a contact period of 30 seconds, the contractions of which were recorded on a polygraph. The five compounds isolated were tested in doses of 196 and 392×10^−6 moles per ml of bath concentration.
row,Compound,"biological activity shown by the extract, in purified compounds"
1,C=C(C)[C@@H]1CC[C@]2(CO)CC[C@]3(C)[C@H](CC[C@@H]4[C@@]5(C)CC[C@H](O)C(C)(C)[C@@H]5CC[C@]43C)[C@@H]12 [betulin],maintained
2,CCCCCCCCCCCCCCCC(=O)OC [methyl palmitate],maintained
